From patent US20090099158A1, “TETRAHYDROISOQUINOLINE COMPOUNDS AS MODULATORS OF THE HISTAMINE H3 RECEPTOR” (priority 2007, published 2009)

The compounds below were run against T1, cloned human H3 receptors (Homo sapiens, UniProt Q9Y5N1) (assay: H3 Receptor Binding (Human)). Conditions: cloned human H3 receptors stably expressed in SK-N-MC cells; average of the results obtained.
T1 construct: expressed in transfected cells; host or cells: SK-N-MC cells
Experimental: Binding of compounds to the cloned human H3 receptors, stably expressed in SK-N-MC cells, was performed as described by Barbier, A. J. et al. (Br. J. Pharmacol. 2004, 143(5), 649-661). Data for compounds tested in this assay are presented in Table 1 as an average of the results obtained.

T1 sequence (Q9Y5N1 whole entry): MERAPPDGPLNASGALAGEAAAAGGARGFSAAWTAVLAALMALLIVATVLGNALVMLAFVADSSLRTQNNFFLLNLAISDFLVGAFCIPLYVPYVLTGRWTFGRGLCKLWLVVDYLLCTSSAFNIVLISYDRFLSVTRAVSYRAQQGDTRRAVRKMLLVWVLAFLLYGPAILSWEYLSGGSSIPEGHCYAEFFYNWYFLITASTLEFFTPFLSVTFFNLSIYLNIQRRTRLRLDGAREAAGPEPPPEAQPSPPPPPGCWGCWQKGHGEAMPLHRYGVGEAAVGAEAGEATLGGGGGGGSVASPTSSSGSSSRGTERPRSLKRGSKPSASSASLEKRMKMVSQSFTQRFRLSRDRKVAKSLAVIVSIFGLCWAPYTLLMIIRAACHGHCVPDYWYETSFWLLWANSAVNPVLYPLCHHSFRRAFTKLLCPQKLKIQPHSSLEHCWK

CC(C)(C)OC(=O)N1CCc2cc(C(=O)N3CCN(C4CCCC4)CC3)ccc2C1 [Example 2, 6-(4-Cyclopentyl-piperazine-1-carbonyl)-3,4-dihydro-1H-isoquinoline-2-carboxylic acid tert-butyl ester] and CC(C)(C)OC(=O)N1CCc2cc(C(=O)N3CCN(C4CCCCC4)CC3)ccc2C1 [Example 3, 6-(4-Cyclohexyl-piperazine-1-carbonyl)-3,4-dihydro-1H-isoquinoline-2-carboxylic acid tert-butyl ester] are within 1.5-fold of each other in Ki: 0.23 µM for the first, 0.165 µM for the second.

CC(C)N1CCc2cc(C(=O)N3CCC(C(C)(C)O)CC3)ccc2C1 [Example 178, [4-(1-Hydroxy-1-methyl-ethyl)-piperidin-1-yl]-(2-isopropyl-1,2,3,4-tetrahydro-isoquinolin-6-yl)-methanone] and CC(C)(O)C1CCN(C(=O)c2ccc3c(c2)CCN(C2CCCC2)C3)CC1 [Example 194, (2-Cyclopentyl-1,2,3,4-tetrahydro-isoquinolin-6-yl)-[4-(1-hydroxy-1-methyl-ethyl)-piperidin-1-yl]-methanone] are within 1.5-fold of each other in Ki: 3.3 µM for the first, 2.7 µM for the second.

O=C(c1ccc2c(c1)CCNC2)N1CCN(C2CCCCC2)CC1 [Example 9, (4-Cyclohexyl-piperazin-1-yl)-(1,2,3,4-tetrahydro-isoquinolin-6-yl)-methanone] and O=C(c1ccc2c(c1)CCNC2)N1CCN(C2CCCC2)CC1 [Example 8, (4-Cyclopentyl-piperazin-1-yl)-(1,2,3,4-tetrahydro-isoquinolin-6-yl)-methanone] are within 1.5-fold of each other in Ki: 0.014 µM for the first, 0.011 µM for the second.

COc1cccc(C(=O)N2CCc3cc(C(=O)N4CCN5CCCCC5C4)ccc3C2)c1 (stereo not shown) [Example 93, [2-(3-Methoxy-benzoyl)-1,2,3,4-tetrahydro-isoquinolin-6-yl]-(octahydro-pyrido[1,2-a]pyrazin-2-yl)-methanone] and N#Cc1cccc(C(=O)N2CCc3cc(C(=O)N4CCN5CCCCC5C4)ccc3C2)c1 (stereo not shown) [Example 94, 3-[6-(Octahydro-pyrido[1,2-a]pyrazine-2-carbonyl)-3,4-dihydro-1H-isoquinoline-2-carbonyl]-benzonitrile] are within 1.5-fold of each other in Ki: 0.017 µM for the first, 0.022 µM for the second.

CC(C)N1CCN(C(=O)c2ccc3c(c2)CCN(C(=O)c2ccc(Cl)cc2)C3)CC1 [Example 110, [2-(4-Chloro-benzoyl)-1,2,3,4-tetrahydro-isoquinolin-6-yl]-(4-isopropyl-piperazin-1-yl)-methanone] and Cc1ccc(C(=O)N2CCc3cc(C(=O)N4CCN(C(C)C)CC4)ccc3C2)cc1 [Example 109, (4-Isopropyl-piperazin-1-yl)-[2-(4-methyl-benzoyl)-1,2,3,4-tetrahydro-isoquinolin-6-yl]-methanone] are within 1.5-fold of each other in Ki: 0.047 µM for the first, 0.037 µM for the second.

Going from O=C(c1ccc2c(c1)CCN(C1CCCC1)C2)N1CCN2CCCCC2C1 (stereo not shown) [Example 192, (2-Cyclopentyl-1,2,3,4-tetrahydro-isoquinolin-6-yl)-(octahydro-pyrido[1,2-a]pyrazin-2-yl)-methanone] to O=C(c1ccc2c(c1)CCN(C(=O)C1CCCCC1)C2)N1CCN2CCCCC2C1 (stereo not shown) [Example 152, Cyclohexyl-[6-(octahydro-pyrido[1,2-a]pyrazine-2-carbonyl)-3,4-dihydro-1H-isoquinolin-2-yl]-methanone], the Ki rises from 0.001 µM to 0.009 µM (9-fold). The first binds more tightly here.

O=C(c1ccc2c(c1)CN(C(=O)C1CCCCC1)CC2)N1CCCN(C2CCC2)CC1 [Example 38, [7-(4-Cyclobutyl-[1,4]diazepane-1-carbonyl)-3,4-dihydro-1H-isoquinolin-2-yl]-cyclohexyl-methanone] and O=C(c1ccc2c(c1)CN(C(=O)C1CCCC1)CC2)N1CCCN(C2CCC2)CC1 [Example 37, [7-(4-Cyclobutyl-[1,4]diazepane-1-carbonyl)-3,4-dihydro-1H-isoquinolin-2-yl]-cyclopentyl-methanone] are the same in Ki: 0.001 µM for the first, 0.001 µM for the second.

Going from O=C(c1ccc2c(c1)CCN(C(=O)C1CC1)C2)N1CCN(C2CCC2)CC1 [Example 34, [6-(4-Cyclobutyl-piperazine-1-carbonyl)-3,4-dihydro-1H-isoquinolin-2-yl]-cyclopropyl-methanone] to CO[C@H]1CC[C@@H](C(=O)N2CCc3cc(C(=O)N4CCCN(C5CCC5)CC4)ccc3C2)CC1 [Example 148, cis-[6-(4-Cyclobutyl-[1,4]diazepane-1-carbonyl)-3,4-dihydro-1H-isoquinolin-2-yl]-(4-methoxy-cyclohexyl)-methanone], the Ki falls from 0.014 µM to 0.001 µM (14-fold). The second binds more tightly here.

Going from CC(C)N1CCc2cc(C(=O)N3CCN4CCCCC4C3)ccc2C1 (stereo not shown) [Example 175, (2-Isopropyl-1,2,3,4-tetrahydro-isoquinolin-6-yl)-(octahydro-pyrido[1,2-a]pyrazin-2-yl)-methanone] to CC(C)N1CCc2cc(C(=O)N3CCCCC3)ccc2C1 [Example 173, (2-Isopropyl-1,2,3,4-tetrahydro-isoquinolin-6-yl)-piperidin-1-yl-methanone], the Ki rises from 0.002 µM to 1.8 µM (900-fold).

Going from CC(C)N1CCN(C(=O)c2ccc3c(c2)CCN(Cc2ccc(C(F)(F)F)cc2)C3)CC1 [Example 20, (4-Isopropyl-piperazin-1-yl)-[2-(4-trifluoromethyl-benzyl)-1,2,3,4-tetrahydro-isoquinolin-6-yl]-methanone] to CC(C)N1CCN(C(=O)c2ccc3c(c2)CCN(Cc2ccc(Cl)c(Cl)c2)C3)CC1 [Example 19, [2-(3,4-Dichloro-benzyl)-1,2,3,4-tetrahydro-isoquinolin-6-yl]-(4-isopropyl-piperazin-1-yl)-methanone], the Ki rises from 0.019 µM to 0.029 µM (1.5-fold).

Going from O=C(c1ccc2c(c1)CCN(C(=O)c1cccc([N+](=O)[O-])c1)C2)N1CCN(C2CCC2)CC1 [Example 121, [6-(4-Cyclobutyl-piperazine-1-carbonyl)-3,4-dihydro-1H-isoquinolin-2-yl]-(3-nitro-phenyl)-methanone] to O=C(c1ccc2c(c1)CCN(C(=O)c1cccc(F)c1)C2)N1CCN(C2CCCCC2)CC1 [Example 73, (4-Cyclohexyl-piperazin-1-yl)-[2-(3-fluoro-benzoyl)-1,2,3,4-tetrahydro-isoquinolin-6-yl]-methanone], the Ki rises from 0.005 µM to 0.109 µM (22-fold). The first binds more tightly here.

COC1CCCC(C(=O)N2CCc3cc(C(=O)N4CCCN(C5CCC5)CC4)ccc3C2)C1 (stereo not shown) [Example 146, [6-(4-Cyclobutyl-[1,4]diazepane-1-carbonyl)-3,4-dihydro-1H-isoquinolin-2-yl]-(3-methoxy-cyclohexyl)-methanone] and O=C(c1ccc2c(c1)CCN(C(=O)C1CCCO1)C2)N1CCCN(C2CCC2)CC1 (stereo not shown) [Example 138, [6-(4-Cyclobutyl-[1,4]diazepane-1-carbonyl)-3,4-dihydro-1H-isoquinolin-2-yl]-(tetrahydro-furan-2-yl)-methanone] are the same in Ki: 0.001 µM for the first, 0.001 µM for the second.

First: CC(C)N1CCc2cc(C(=O)N3CCOCC3)ccc2C1 [Example 174, (2-Isopropyl-1,2,3,4-tetrahydro-isoquinolin-6-yl)-morpholin-4-yl-methanone]
Second: CC(C)N1CCC(C(=O)N2CCc3cc(C(=O)N4CCOCC4)ccc3C2)CC1 [Example 149, [2-(1-Isopropyl-piperidine-4-carbonyl)-1,2,3,4-tetrahydro-isoquinolin-6-yl]-morpholin-4-yl-methanone]
The Ki of the first is 20-fold higher: 2.14 µM for the first, 0.109 µM for the second.

Compared with O=C(c1ccc2c(c1)CCNC2)N1CCCCC1 [Example 6, Piperidin-1-yl-(1,2,3,4-tetrahydro-isoquinolin-6-yl)-methanone], CC(C)N1CCCN(C(=O)c2ccc3c(c2)CCN(C(=O)C2CCCCC2)C3)CC1 [Example 162, Cyclohexyl-[6-(4-isopropyl-[1,4]diazepane-1-carbonyl)-3,4-dihydro-1H-isoquinolin-2-yl]-methanone] is 750-fold lower in Ki: 3 µM for the first, 0.004 µM for the second.

N#Cc1cccc(C(=O)N2CCc3cc(C(=O)N4CCC[C@H]4CN4CCCC4)ccc3C2)c1 [Example 52, (S)-3-[6-(2-Pyrrolidin-1-ylmethyl-pyrrolidine-1-carbonyl)-3,4-dihydro-1H-isoquinoline-2-carbonyl]-benzonitrile] and N#Cc1ccc(C(=O)N2CCc3cc(C(=O)N4CCN5CCCCC5C4)ccc3C2)cc1 (stereo not shown) [Example 95, 4-[6-(Octahydro-pyrido[1,2-a]pyrazine-2-carbonyl)-3,4-dihydro-1H-isoquinoline-2-carbonyl]-benzonitrile] are within 1.5-fold of each other in Ki: 0.015 µM for the first, 0.016 µM for the second.

O=C(c1ccc2c(c1)CCN(C(=O)c1ccc(O)cc1)C2)N1CCN(C2CCC2)CC1 [Example 123, [6-(4-Cyclobutyl-piperazine-1-carbonyl)-3,4-dihydro-1H-isoquinolin-2-yl]-(4-hydroxy-phenyl)-methanone] and COc1ccc(C(=O)N2CCc3cc(C(=O)N4CCN(C5CCC5)CC4)ccc3C2)cc1 [Example 112, (4-Cyclobutyl-piperazin-1-yl)-[2-(4-methoxy-benzoyl)-1,2,3,4-tetrahydro-isoquinolin-6-yl]-methanone] are within 1.5-fold of each other in Ki: 0.016 µM for the first, 0.02 µM for the second.

First: O=C(c1ccc2c(c1)CCN(C(=O)C1CCCCC1)C2)N1CC2CCN(C3CCC3)C2C1 (stereo not shown) [Example 165, (1-Cyclobutyl-hexahydro-pyrrolo[3,4-b]pyrrol-5-yl)-(2-cyclohexanecarbonyl-1,2,3,4-tetrahydro-isoquinolin-6-yl)-methanone]
Second: O=C(C1CCCCC1)N1CCc2cc(CN3CCOCC3)ccc2C1 [Example 167, Cyclohexyl-(6-morpholin-4-ylmethyl-3,4-dihydro-1H-isoquinolin-2-yl)-methanone]
The Ki of the first is 4.6-fold lower: 0.3 µM for the first, 1.39 µM for the second.

Compared with O=C(c1ccc2c(c1)CCN(C(=O)c1ccc(Cl)cc1)C2)N1CCN(C2CCCCC2)CC1 [Example 77, [2-(4-Chloro-benzoyl)-1,2,3,4-tetrahydro-isoquinolin-6-yl]-(4-cyclohexyl-piperazin-1-yl)-methanone], O=C(c1ccc2c(c1)CCN(C(=O)c1ccc(Cl)cc1)C2)N1CCN(C2CCCC2)CC1 [Example 69, [2-(4-Chloro-benzoyl)-1,2,3,4-tetrahydro-isoquinolin-6-yl]-(4-cyclopentyl-piperazin-1-yl)-methanone] is 2-fold lower in Ki: 0.18 µM for the first, 0.091 µM for the second.

With O=C(c1ccc2c(c1)CCN(Cc1ccc(Cl)cc1)C2)N1CCN(C2CC2)CC1 [Example 24, [2-(4-Chloro-benzyl)-1,2,3,4-tetrahydro-isoquinolin-6-yl]-(4-cyclopropyl-piperazin-1-yl)-methanone] the Ki was 0.075 µM.
